Our source for the TGI values is PubChem BioAssay (NCI).

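All cell lines were grown in 96-well plates and treated with compound for 48 hours. Definition used: TGI = concentration required for complete inhibition of growth.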

Some test systems named below: A549 NSCLC; MDA-MB-435; MOLT-4 leukemia; KM12 colon; NCI/ADR-RES ovarian; LOX IMVI melanoma; NCI-H23 lung; MCF7 breast; SNB-19 CNS; NCI-H226 lung; HOP-92 NSCLC; SK-MEL-2 melanoma.
Holding throughout (test): growth of human tumour cells (NCI), 48 h

Consider `CC(=O)c1nc2ccccc2n1CC(=O)c1ccc([N+](=O)[O-])cc1`, for which the TGI is 37.6 µM in the test with A549 NSCLC; > 100 µM in the test with MDA-MB-435; 84.5 µM with MOLT-4 leukemia; 47.3 µM in the test on KM12 colon; 49.2 µM in the test with NCI/ADR-RES ovarian; 23.2 µM in the test on LOX IMVI melanoma. The TGI in the test on NCI-H23 lung is > 100 µM; with MCF7 breast, 58.8 µM; in the test on SNB-19 CNS, 74.2 µM; in the test on NCI-H226 lung, 57.9 µM.
As for `CC1CCN(c2nnc(Cl)cc2C(=O)c2ccccc2)CC1`, the TGI in the test with A549 NSCLC was > 100 µM; in the test on MDA-MB-435, 56.9 µM; with MOLT-4 leukemia it was 55 µM; with KM12 colon, 52.6 µM; in the test with NCI/ADR-RES ovarian, > 100 µM; with HOP-92 NSCLC, 55.5 µM. Moreover, the TGI in the test with LOX IMVI melanoma is > 100 µM; in the test with NCI-H23 lung, 82.4 µM; in the test on MCF7 breast, 36.9 µM; in the test on SNB-19 CNS, 92.7 µM; with SK-MEL-2 melanoma it was 40.8 µM.
On to `O=C(/C=C1\N=C(c2ccccc2)N(c2ccc3c(c2)Sc2cc(N4C(=O)/C(=C/C(=O)/C=C/c5ccccc5)N=C4c4ccccc4)ccc2N3)C1=O)/C=C/c1ccccc1`, for which the TGI was > 100 µM with A549 NSCLC; 44.4 µM with MDA-MB-435; > 100 µM with MOLT-4 leukemia; > 100 µM in the test with KM12 colon; > 100 µM with NCI/ADR-RES ovarian; > 100 µM with HOP-92 NSCLC. Moreover, the TGI in the test with LOX IMVI melanoma was 84.9 µM; with NCI-H23 lung, > 100 µM; in the test with MCF7 breast, 56.1 µM; in the test with SNB-19 CNS, 80 µM; in the test on SK-MEL-2 melanoma, 38.2 µM.
For `CC(C)(C)NCC(O)COc1cccc2[nH]c(C#N)cc12` (stereo not given), the TGI with A549 NSCLC, with MDA-MB-435, with MOLT-4 leukemia, in the test on KM12 colon, in the test with NCI/ADR-RES ovarian and with NCI-H23 lung was > 100 µM throughout. For the same compound, the TGI with MCF7 breast, in the test on SNB-19 CNS, in the test with NCI-H226 lung and in the test with SK-MEL-2 melanoma was > 100 µM in each case.
Take `C=C1C(=O)OC2C(C)C3C=CC(=O)[C@@]3(C)C(OC(=O)/C(C)=C/C)C1[C@@H]2OC(C)=O` (stereo not given in full): the TGI in the test with A549 NSCLC was determined as 3.8 µM; in the test with MDA-MB-435 it was 0.86 µM; with KM12 colon, 3.68 µM; in the test with NCI/ADR-RES ovarian, 0.73 µM; in the test with HOP-92 NSCLC, 1.56 µM; with LOX IMVI melanoma it was 0.521 µM. Also, the TGI in the test with NCI-H23 lung came out at 1.29 µM; in the test with MCF7 breast, 1.37 µM; in the test with SNB-19 CNS, 4.13 µM; in the test with NCI-H226 lung, 4.42 µM; with SK-MEL-2 melanoma, 1.18 µM.
Turning to `COc1cc(/C=C\c2ccc(SC)cc2)cc(OC)c1OC`, the TGI in the test with A549 NSCLC is > 100 µM; in the test on MDA-MB-435 it was > 100 µM; in the test on MOLT-4 leukemia, 28.9 µM; in the test on KM12 colon, 2.8 µM; in the test on NCI/ADR-RES ovarian, > 100 µM; in the test on HOP-92 NSCLC it was > 46.1 µM. The TGI is 45.2 µM in the test with LOX IMVI melanoma, 0.408 µM in the test on NCI-H23 lung, > 100 µM with MCF7 breast and 0.841 µM in the test on SK-MEL-2 melanoma.
For `COCOc1cc(OC)ccc1C=O`, the TGI in the test on A549 NSCLC is > 100 µM; with MDA-MB-435 it was 40.6 µM; in the test on MOLT-4 leukemia, > 100 µM; with KM12 colon, > 100 µM; with NCI/ADR-RES ovarian it was 52.1 µM; with LOX IMVI melanoma, > 100 µM. For the same compound, the TGI in the test on NCI-H23 lung, in the test on MCF7 breast, in the test with SNB-19 CNS, with NCI-H226 lung and in the test on SK-MEL-2 melanoma was > 100 µM in each case.
In the case of `CC1OC(OC2C(CO)OC(O[C@H]3CC[C@@]4(C)C(=CC[C@H]5[C@@H]6C[C@@H]7O[C@](O)(CC[C@@H](C)COC8OC(CO)C(O)C(O)C8O)[C@@H](C)[C@@H]7[C@@]6(C)CC[C@@H]54)C3)C(OC3OC(C)C(O)C(O)C3O)C2O)C(O)C(O)C1O` (stereo not given in full), the TGI was found to be 3.16 µM in the test on A549 NSCLC; 9.32 µM in the test with MDA-MB-435; 3.71 µM in the test with MOLT-4 leukemia; 6.85 µM in the test with KM12 colon; 4.22 µM with NCI/ADR-RES ovarian; 3.17 µM with LOX IMVI melanoma. In addition, the TGI with NCI-H23 lung was determined as 10.3 µM; in the test on MCF7 breast, 5.93 µM; with SNB-19 CNS, 6.39 µM; in the test with SK-MEL-2 melanoma it was 12.3 µM.
`Fc1ccc(C(=NCc2ccccc2)N2CCOCC2)cc1`: the TGI in the test with MDA-MB-435, with MOLT-4 leukemia, in the test with KM12 colon, in the test on NCI/ADR-RES ovarian, in the test with LOX IMVI melanoma and with NCI-H23 lung was > 100 µM throughout. In addition, the TGI in the test on MCF7 breast, with SNB-19 CNS, in the test on NCI-H226 lung and with SK-MEL-2 melanoma was > 100 µM throughout.
In the case of `O=c1[nH]c2ccc(CC(=S)N3CCN(c4ccccc4)CC3)cc2s1`, the TGI with MDA-MB-435 is > 100 µM; in the test on MOLT-4 leukemia, > 100 µM; in the test on KM12 colon it was > 100 µM; in the test on NCI/ADR-RES ovarian, 69.3 µM; in the test on LOX IMVI melanoma, > 100 µM; with NCI-H23 lung, > 100 µM. Besides, the TGI in the test with MCF7 breast is > 100 µM; in the test on SNB-19 CNS, > 100 µM; in the test with NCI-H226 lung it was 69.6 µM; in the test on SK-MEL-2 melanoma, > 100 µM.
Regarding `Cc1nn(-c2ccccc2)c(C)c1/C=N/NC(=O)c1sc(=S)n(-c2ccc(Cl)cc2)c1N`, the TGI in the test with A549 NSCLC is > 100 µM; in the test with MDA-MB-435, > 100 µM; in the test on MOLT-4 leukemia it was > 100 µM; in the test on KM12 colon it was > 100 µM; in the test on NCI/ADR-RES ovarian, > 100 µM; with LOX IMVI melanoma, 8.73 µM. Further, the TGI in the test on NCI-H23 lung, in the test with MCF7 breast, in the test with SNB-19 CNS, in the test on NCI-H226 lung and in the test with SK-MEL-2 melanoma was > 100 µM each time.
For the compound `COc1ccc(NS(=O)C2CCCCC2)cc1` (stereo not given), the TGI with A549 NSCLC, in the test on MDA-MB-435, with MOLT-4 leukemia, in the test with KM12 colon, in the test with NCI/ADR-RES ovarian and with LOX IMVI melanoma was > 100 µM throughout. Further, the TGI with NCI-H23 lung, in the test on MCF7 breast, in the test on SNB-19 CNS and with NCI-H226 lung was > 100 µM each time.
